Measured values from patent US7968596B2, “Preparation and diabetic use of Gibberellins” (Australian Biomedical Company Pty, Ltd., priority 2001, dated 2011).

Legend:
Diabetic Rats = assay: Effect on streptozotocin-induced diabetic rats (blood glucose, body weight); format: in vivo, Male Wistar rats; settings: for Blood glucose level after day 20th, 2 hours: 2 hours after administration; for Blood glucose level after day 20th, 5 hours: 5 hours after administration
Procedure: Male Wistar rats (290 g˜330 g) were weighed and lightly anaesthetized (4% halothane, 2:1 O2/N2O) so that blood glucose levels could be measured via a tail vein sample, using a Precision Q.I.D. glucometer. Diabetes was then induced by a single tail vein injection of streptozotocin (STZ, 60 mg/kg), which was dissolved immediately prior to use in citrate buffer (50 mM citric acid and 50 mM trisodium citrate; pH 4.5). An equivalent volume of citrate buffer was injected into age-matched control rats.
Rats were housed in groups of two during the experiment. Animal house temperature was maintained at 20° C. (±2° C.) with a 12 hour light/dark cycle, and rats were allowed free access to food and water.
Forty-eight hours after the administration of STZ (60 mg/kg), a blood glucose sample was taken and animals with blood glucose levels≧16 mM were considered to be diabetic. Rats were then randomly divided into groups. The slow-acting, Lente Monotard insulin was used and Gibberellin sodium salt was made up as required in distilled water immediately prior to use. Blood glucose readings were obtained two hours or 5 hours after the administration of drug(s) every three days.

Human skin cell culture = assay: Effect of Gibberellin A3 on cell growth compared to EGF in vitro (human skin cell culture, keratinocytes media); format: cell-based; settings: for Results: cell growth / cell division rate: five days
Procedure: Human skin cell culture experiments were conducted by using keratinocytes media. Each well was seeded with 1,500 cells. Incubation was carried out at 37° C. for a period of five days.

rats = settings: cited from earlier work
mice = settings: cited from earlier work
skin and eyes = settings: in vivo; cited from earlier work
[1] = Group 1: Insulin 4 unit/rat sub-cutaneous daily
[2] = Group 2: Insulin 2 unit/rat sub-cutaneous daily
[3] = Keratinocyte medium containing no EGF, but containing Gibberellin A3 (5 μg/ml)
[4] = Perfect keratinocyte medium (containing EGF) plus Gibberellin A3 (5 μg/ml)

| Molecule | Body weight change on the 30th day (Diabetic Rats; [1]) | Blood glucose level after day 20th, 2 hours (Diabetic Rats; Group 1: Insulin 4 unit/rat sub-cutaneous daily, STZ diabetic rats) | Blood glucose level after day 20th, 5 hours (Diabetic Rats; [1]) | Body weight change on the 30th day (Diabetic Rats; [2]) [%] | Blood glucose level after day 20th, 2 hours (Diabetic Rats; [2]) | Blood glucose level after day 20th, 5 hours (Diabetic Rats; [2]) | effect of presence of both EGF and Gibberellin A3 on the rate of cell growth (Human skin cell culture; Experiment 3.2, EGF plus Gibberellin A3 5 μg/ml) | stimulation of cell growth by Gibberellin A3 alone, compared to EGF (Human skin cell culture; Experiment 3.4, no EGF, Gibberellin A3 5 μg/ml) | Results: cell growth (Human skin cell culture; [3]) | cell division rate (Human skin cell culture; [3]) | Results: cell growth (Human skin cell culture; [4]) | cell division rate (Human skin cell culture; [4]) | acute oral LD50 (rats) [mg/kg] | acute oral LD50 (mice) [mg/kg] | irritation to skin and eyes (skin and eyes) |
| --- | --- | --- | --- | --- | --- | --- | --- | --- | --- | --- | --- | --- | --- | --- | --- |
| Insulin: slow-acting, Lente Monotard insulin | +8% | 4~5 mM | 3~5 mM | −8 | 15~18 mM | 14~16 mM | – | – | – | – | – | – | – | – | – |
| C=C1C[C@]23C[C@@]1(O)CC[C@H]2[C@@]12C=C[C@H](O)[C@@](C)(C(=O)O1)[C@H]2[C@@H]3C(=O)O [Gibberellin A3] | – | – | – | – | – | – | no additive effect | as effectively as EGF | Very good growth (cell | division rate = 100) | Very good growth (cell | division rate = 100) | 6300 | > 15000 | non-irritating |
